Laboratory results as given in patent US20190151418A1, “COMBINATION OF CALCIUM-PHOSPHATE-CONTAINING POROUS COMPOSITE AND PTH” (TOYOBO CO., LTD., priority 2016, published 2019).

Test system: standardized full-thickness bone defect (diameter: about 9 mm) in the calvarium
Experiment: Test Example 1: rat calvarium bone defect, OCP/Col or β-TCP/Col implant + teriparatide subcutaneous injection
Type: in vivo, Male Wistar rats
Excerpt: Male Wistar rats (12 weeks old) were each intraperitoneally anesthetized, and a skin incision and a periosteal incision were made in the calvarium part to expose the calvarium. A standardized full-thickness bone defect (diameter: about 9 mm), for which spontaneous recovery could not be expected, was created. Then, one disc-shaped OCP/Col produced in Production Example 2 or one disc-shaped β-TCP/Col produced in Production Example 3 was implanted therein. As the control, rats in which only a bone defect was created, and no sample was implanted (untreated group) were prepared. After the sample was implanted, the periosteum and skin were sutured, and the surgery was completed. […] In the rats of the teriparatide subcutaneous injection group, 10 μg/kg of the teriparatide prepared in Production Example 5 was subcutaneously injected immediately after surgery and every day thereafter. Subcutaneous injection was performed in such a manner that the thawed teriparatide solution was sucked by a 1-mL syringe (27G injection needle), the back skin was sterilized with a dilute Hibitane solution, and then a considerable amount of teriparatide solution was injected subcutaneously in the back. The observation period after surgery was 8 weeks for each group, and 5 rats were used in each period.
Four weeks and eight weeks after surgery, tomography was carried out on the rats in the living state using an X-ray CT scanner for experimental animals (Latheta LCT-200, produced by Hitachi Aloka Medical, Ltd.) at a low X-ray tube voltage, and the state of new bone formation in the bone defect site was carefully examined. Similarly, after CT photography 8 weeks after surgery, the rats were euthanized under anesthesia with an excess amount of pentobarbital. The calvarium and surrounding tissue were taken, and immersed and fixed in 0.1 M phosphate-buffered 4% paraformaldehyde (pH 7.4). The extracted samples were photographed (20 kV, 5 mA) with a soft X-ray camera (CMBW-2, produced by Softex Co., Ltd.), and then decalcified with 10% EDTA to prepare paraffin samples. Then, tissue sections (thickness: 6 μm) cut in the frontal plane were prepared, and a histological search was performed by hematoxylin-eosin staining. Further, using the multiple tissue sections corresponding to the center of the defect of each sample, the ratio of new bone (n-Bone %) in the created defect was examined by histological quantification. Variance analysis, etc., were conducted using the average value and standard deviation of n-Bone % in each group, and a significance test was conducted. The significance level was set at 5%.

[1] = 8 weeks after surgery, hematoxylin-eosin, PTH(+) = teriparatide 10 μg/kg s.c. every day, PTH(−) = none

## CC[C@H](C)[C@H](NC(=O)[C@H](CCC(=O)O)NC(=O)[C@H](CO)NC(=O)[C@@H](NC(=O)[C@@H](N)CO)C(C)C)C(=O)N[C@@H](CCC(N)=O)C(=O)N[C@@H](CC(C)C)C(=O)N[C@@H](CCSC)C(=O)N[C@@H](Cc1cnc[nH]1)C(=O)N[C@@H](CC(N)=O)C(=O)N[C@@H](CC(C)C)C(=O)NCC(=O)N[C@@H](CCCCN)C(=O)N[C@@H](Cc1cnc[nH]1)C(=O)N[C@@H](CC(C)C)C(=O)N[C@@H](CC(N)=O)C(=O)N[C@@H](CO)C(=O)N[C@@H](CCSC)C(=O)N[C@@H](CCC(=O)O)C(=O)N[C@@H](CCCN=C(N)N)C(=O)N[C@H](C(=O)N[C@@H](CCC(=O)O)C(=O)N[C@@H](Cc1c[nH]c2ccccc12)C(=O)N[C@@H](CC(C)C)C(=O)N[C@@H](CCCN=C(N)N)C(=O)N[C@@H](CCCCN)C(=O)N[C@@H](CCCCN)C(=O)N[C@@H](CC(C)C)C(=O)N[C@@H](CCC(N)=O)C(=O)N[C@@H](CC(=O)O)C(=O)N[C@H](C(=O)N[C@@H](Cc1cnc[nH]1)C(=O)N[C@@H](CC(N)=O)C(=O)N[C@@H](Cc1ccccc1)C(=O)O)C(C)C)C(C)C [teriparatide]
8 weeks after surgery, PTH(+) = teriparatide 10 μg/kg s.c. every day
  X-ray photographs of isolated bone defect sites (FIG. 1): radiopaque images in the defects were equally scarce
[1]
  stained pathological specimens, high-magnification images (FIG. 4): thin new bone extended from the defect margins
  stained pathological specimens, low-magnification (×1.25) images (FIG. 3): thin bone tissue extending from the defect margins (▾) and connective tissue surrounding the bone tissue
8 weeks after surgery, histological quantification (FIG. 5), PTH(+) = teriparatide 10 μg/kg subcutaneously every day, PTH(−) = no injection, average ± standard deviation
  ratio of new bone (n-Bone %) in the defect: 31.1±10.2%
PTH(+) = teriparatide 10 μg/kg s.c. every day
  X-ray photographs (cross sections) of calvarium shot with the rats alive (FIG. 2): radiopaque images extending from the defect margins (∇) were observed; however, their thickness was less than that of the existing bone
Teriparatide 10 μg/kg s.c. every day, 8 weeks
  new bone formation (conclusion from FIGS. 1 to 5): new bone formation was not observed
